Laboratory results reported in US20070178516A1, “Self-addressable self-assembling microelectronic integrated systems, component devices, mechanisms, methods, and procedures for molecular biological analysis and diagnostics” (NANOGEN, INC., priority 1993, published 2007).
{Amino} = amino group added with ABI Aminolink 2 reagent, reacts with dyes such as Texas Red

Test system: not given
Assay: not given
Conditions: not told
In the case of `c1c[nH]cn1` [imidazole], the “pH above the surface of the permeation layer” value is reported as over 5. For `N[C@@H](Cc1c[nH]cn1)C(=O)O` [Histidine], the “pH above the surface of the permeation layer” value was over 5.

Test system: not given
Assay: not given
Conditions: cited from earlier work
For `NCCC(=O)O` [β-Alanine], the “pKa (second listed)” value is listed as 10.19. In the case of `Cn1cnc(C[C@H](N)C(=O)O)c1` [3(τ)-methylhistidine], the “pKa (first listed)” value is listed as 1.70,, the “pKa (second listed)” value is listed as 5.87, and the “pKa (third listed)” value is listed as 9.16^3. In the case of `Cn1cncc1C[C@H](N)C(=O)O` [1(π)-methylhistidine], the “pKa (first listed)” value is listed as 1.64,, the “pKa (second listed)” value is listed as 6.46, and the “pKa (third listed)” value is listed as 8.61^3.

Test system: ET-10AL capture sequence
Assay: Electronically controlled fluorescent DNA/dye (ethidium bromide) detection
Assay type: binding
Conditions: capture ET-10AL; peak EB fluorescence after positive bias 0.05 mA, 0.03 Volt-Hours
Procedure: Microcapillary test devices were prepared and hybridized as described in Example 2 and 3. Ethidium bromide (EB) was added to the buffer solution (˜0.05 mM EB final concentration) and the test devices were biased negative to concentrate EB (positively charged) at both the hybridized and un-hybridized microlocations. The test devices were observed by epifluorescece microscopy at 550 nm excitation and 600 nm emission.
The test devices were re-mounted biased positive
constant current at 0.05 mA for 0.03 Volt-Hours, to selectively remove the EB. Fluorescence at the un-hybridized microlocations diminished while the hybridized microlocations retained a very high level of EB fluorescence. The results are given below:
Fluorescent signal was measured using an ICCD imaging
camera system and represent peak fluorescent intensities. The signal to noise ratio would be more than 1000 fold if the entire fluorescent signal area was integrated.
For “5′-Amino-CCT GCT CAT GAG TCT CTC (CCTGCTCATGAGTCTCTC; DNA, 5' {Amino}, backbone not given here; further chemistry not fully specified) [ET-11AL]”, the “Normalized Signal” value was over 200. With “5′-Amino-TGCGAGCTGCAGTCAGACAT (TGCGAGCTGCAGTCAGACAT; DNA, 5' {Amino}, backbone not given here; further chemistry not fully specified) [ET-21A]” the “Normalized Signal” value was 1.

Test system: not listed separately
Assay: Conductivity measurements of transport buffers
Assay type: physicochemical
Conditions: not given
In the case of `NC(CO)(CO)CO` [10 mM TRIS, TRIS], the “Average/Std. Deviation (conductivity)” value is reported as 572 +/− 10.5 μS/cm, the “Measurement 1 (conductivity)” value is reported as 572 μS/cm and the “Measurement 2 (conductivity)” value is reported as 562 μS/cm. For the same compound, the “Measurement 3 (conductivity)” value was 583 μS/cm. For `O=C([O-])CCC(=O)[O-].[Na+].[Na+]` [5 mM NaSuccinate, NaSuccinate], the “Average/Std. Deviation (conductivity)” value was 1.01 +/− 0.045 mS/cm, the “Measurement 1 (conductivity)” value was 1.05 mS/cm and the “Measurement 2 (conductivity)” value was 960 μS/cm. For the same compound, the “Measurement 3 (conductivity)” value was 1.01 mS/cm. With `[Cl-].[Cl-].[Mg+2]` [1 mM MgCl2, MgCl2] the “Average/Std. Deviation (conductivity)” value was 186 +/− 18.8 μS/cm, the “Measurement 1 (conductivity)” value was 174 μS/cm and the “Measurement 2 (conductivity)” value was 208 μS/cm. The “Measurement 3 (conductivity)” value was 177 μS/cm. For `[Cl-].[Na+]` [0.1 mM NaCl, NaCl], the “Average/Std. Deviation (conductivity)” value was 9.43 +/− 0.93 μS/cm, the “Measurement 1 (conductivity)” value was 8.80 μS/cm and the “Measurement 2 (conductivity)” value was 8.98 μS/cm. The “Measurement 3 (conductivity)” value was 10.5 μS/cm. For `[Cl-].[Na+]` [1 mM NaCl, NaCl], the “Average/Std. Deviation (conductivity)” value was 112.7 +/− 2.08 μS/cm, the “Measurement 1 (conductivity)” value was 112 μS/cm and the “Measurement 2 (conductivity)” value was 115 μS/cm. For the same compound, the “Measurement 3 (conductivity)” value was 111 μS/cm. For `N[C@@H](CS)C(=O)O` [250 mM Cysteine, Cysteine], the “Average/Std. Deviation (conductivity)” value was 22.7 +/− 5.09 μS/cm, the “Measurement 1 (conductivity)” value was 27.4 μS/cm and the “Measurement 2 (conductivity)” value was 17.3 μS/cm. For the same compound, the “Measurement 3 (conductivity)” value was 23.5 μS/cm. For NaPO4 [1 mM NaPO4], the “Average/Std. Deviation (conductivity)” value was 128.7 +/− 7.0 μS/cm, the “Measurement 1 (conductivity)” value was 122 μS/cm and the “Measurement 2 (conductivity)” value was 128 μS/cm. The “Measurement 3 (conductivity)” value was 136 μS/cm. In the case of NaPO4 [20 mM NaPO4], the “Average/Std. Deviation (conductivity)” value is reported as 2.90 +/− 0.11 mS/cm, the “Measurement 1 (conductivity)” value is reported as 2.90 mS/cm and the “Measurement 2 (conductivity)” value is reported as 2.79 mS/cm. The “Measurement 3 (conductivity)” value was 3.00 mS/cm. In the case of NaPO4 [10 mM NaPO4], the “Average/Std. Deviation (conductivity)” value is reported as 1.44 +/− 0.04 mS/cm, the “Measurement 1 (conductivity)” value is reported as 1.40 mS/cm and the “Measurement 2 (conductivity)” value is reported as 1.44 mS/cm. For the same compound, the “Measurement 3 (conductivity)” value was 1.48 mS/cm. For `[Cl-].[Cl-].[Mg+2]` [0.1 mM MgCl2, MgCl2], the “Average/Std. Deviation (conductivity)” value was 17.3 +/− 0.87 μS/cm, the “Measurement 1 (conductivity)” value was 16.9 μS/cm and the “Measurement 2 (conductivity)” value was 16.7 μS/cm. The “Measurement 3 (conductivity)” value was 18.3 μS/cm. In the case of `O=S(=O)(O)CCN1CCN(CCO)CC1` [25 mM HEPES, HEPES], the “Average/Std. Deviation (conductivity)” value is reported as 9.7 +/− 0.71 μS/cm, the “Measurement 1 (conductivity)” value is reported as 9.16 μS/cm and the “Measurement 2 (conductivity)” value is reported as 9.44 μS/cm. The “Measurement 3 (conductivity)” value was 10.5 μS/cm.

Same assay, conditions: 20 mM sodium phosphate
Compound `O=P(O)(O)O` [NaPO4, Sodium Phosphate] has a conductance of about 2.9 mS/cm.

Same assay, conditions: 250 mM cysteine solution, pH 4 to 6 range
For `N[C@@H](CS)C(=O)O` [Cysteine], the conductance was about 23 μS/cm.
